ChEMBL document CHEMBL1126778, “Adenosine A1 antagonists. 3. Structure-activity relationships on amelioration against scopolamine- or N6-((R)-phenylisopropyl)adenosine-induced cognitive disturbance” (J Med Chem, 1993)

Key:
[1] = system: Rattus norvegicus; assay: Acquisition time in Scopolamine induced avoidance test (performed in rat) for antagonistic activity after p.o. administration of 5 mg/kg; assay type: functional; settings: route oral
[2] = system: Rattus norvegicus; assay: Acquisition time in Scopolamine induced avoidance test (performed in rat) for antagonistic activity after p.o. administration of 0.31 mg/kg; assay type: functional; settings: route oral
[3] = system: Mus musculus; assay: Tested for locomotor activity after oral administration of 40 mg/kg for 120 min; assay type: functional
[4] = system: Rattus norvegicus; assay: Retention time in Scopolamine induced avoidance test (performed in rat) for antagonistic activity after peroral administration of 5 mg/kg; assay type: functional, organism-based; parameters: dose 5 mg/kg
[5] = system: Rattus norvegicus; assay: Retention time in Scopolamine induced avoidance test (performed in rat) for antagonistic activity after peroral administration of 1.25 mg/kg; assay type: functional, organism-based; parameters: dose 1.25 mg/kg
[6] = system: Rattus norvegicus; assay: Acquisition time in Scopolamine induced avoidance test (performed in rat) for antagonistic activity after peroral administration of 1.25 mg/kg; assay type: functional; settings: route oral
[7] = system: Rattus norvegicus; assay: Retention time in Scopolamine induced avoidance test (performed in rat) for antagonistic activity after p.o. administration of 0.31 mg/kg; assay type: functional, organism-based; parameters: dose 0.31 mg/kg
[8] = system: Rattus norvegicus; assay: Retention time in Scopolamine induced avoidance test (performed in rat) for antagonistic activity after peroral administration of 80 mg/kg; assay type: functional, organism-based; parameters: dose 80 mg/kg
[9] = system: Rattus norvegicus; assay: Acquisition time in Scopolamine induced avoidance test (performed in rat) for antagonistic activity after peroral administration of 20 mg/kg; assay type: functional; settings: route oral
[10] = system: Mus musculus; assay: Tested for locomotor activity after oral administration of […] for 120 min; assay type: functional
[11] = system: Rattus norvegicus; assay: Acquisition time in Scopolamine induced avoidance test (performed in rat) for antagonistic activity after peroral administration of 80 mg/kg; assay type: functional; settings: route oral
[12] = system: Mus musculus; assay: Tested for locomotor activity after oral administration of 10 mg/kg for 120 min; assay type: functional
[13] = system: Rattus norvegicus; assay: Acquisition time in Scopolamine induced avoidance test (performed in rat) for antagonistic activity after p.o. administration of 0.08 mg/kg; assay type: functional; settings: route oral
[14] = system: Mus musculus; assay: Retention time in (R)-PIA) induced avoidance test (performed in mice) for antagonistic activity after p.o. administration of 1.25 mg/kg; assay type: functional, organism-based; parameters: dose 1.25 mg/kg
[15] = system: Mus musculus; assay: Acquisition time in (R)-PIA) induced avoidance test (performed in mice) for antagonistic activity after p.o. administration of 1.25 mg/kg; assay type: functional; settings: route oral
[16] = biological target: Adenosine A2 receptor (Homo sapiens, UniProt P29275+P29274); assay: Binding affinity towards Adenosine A2 receptor of human platelets with [125I]-N6-aminobenzyladenosine
[17] = biological target: T1, Adenosine receptor A1 (Bos taurus) (UniProt P28190); assay: Binding affinity for Adenosine A1 receptor of bovine brain at 10e-5 M with [125I]-N6-aminobenzyladenosine
T1 sequence (whole entry): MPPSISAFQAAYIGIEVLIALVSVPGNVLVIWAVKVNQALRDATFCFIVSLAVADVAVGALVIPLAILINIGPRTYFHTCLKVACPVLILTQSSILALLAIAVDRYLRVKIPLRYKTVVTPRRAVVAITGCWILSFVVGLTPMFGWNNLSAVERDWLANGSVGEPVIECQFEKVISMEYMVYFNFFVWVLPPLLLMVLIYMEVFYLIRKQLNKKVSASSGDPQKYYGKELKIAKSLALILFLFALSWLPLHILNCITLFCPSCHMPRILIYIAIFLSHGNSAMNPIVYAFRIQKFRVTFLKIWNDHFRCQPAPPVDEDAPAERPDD

[18] = system: Mus musculus; assay: Retention time in (R)-PIA) induced avoidance test (performed in mice) for antagonistic activity after peroral administration of 5 mg/kg; assay type: functional, organism-based; parameters: dose 5 mg/kg
[19] = system: Mus musculus; assay: Acquisition time in (R)-PIA) induced avoidance test (performed in mice) for antagonistic activity after peroral administration of 5 mg/kg; assay type: functional; settings: route oral
[20] = system: Mus musculus; assay: Retention time in (R)-PIA) induced avoidance test (performed in mice) for antagonistic activity after peroral administration of 0.02 mg/kg
[21] = system: Mus musculus; assay: Retention time in (R)-PIA) induced avoidance test (performed in mice) for antagonistic activity after peroral administration of 0.31 mg/kg; assay type: functional, organism-based; parameters: dose 0.31 mg/kg
[22] = system: Rattus norvegicus; assay: Retention time in Scopolamine induced avoidance test (performed in rat) for antagonistic activity after p.o. administration of 0.08 mg/kg; assay type: functional, organism-based; parameters: dose 0.08 mg/kg
[23] = system: Rattus norvegicus; assay: Retention time in Scopolamine induced avoidance test (performed in […]) for antagonistic activity after peroral administration of 5 mg/kg; assay type: functional, organism-based; parameters: dose 5 mg/kg
[24] = system: Mus musculus; assay: Retention time in (R)-PIA) induced avoidance test (performed in mice) for antagonistic activity after peroral administration of 0.08 mg/kg; assay type: functional, organism-based; parameters: dose 0.08 mg/kg
[25] = system: Mus musculus; assay: Acquisition time in (R)-PIA) induced avoidance test (performed in mice) for antagonistic activity after peroral administration of 20 mg/kg; assay type: functional; settings: route oral
[26] = system: Mus musculus; assay: Acquisition time in (R)-PIA) induced avoidance test (performed in mice) for antagonistic activity after peroral administration of 0.08 mg/kg; assay type: functional; settings: route oral
[27] = system: Mus musculus; assay: Acquisition time in (R)-PIA) induced avoidance test (performed in mice) for antagonistic activity after p.o. administration of 0.31 mg/kg; assay type: functional; settings: route oral
[28] = system: Rattus norvegicus; assay: Retention time in Scopolamine induced avoidance test (performed in rat) for antagonistic activity after peroral administration of 20 mg/kg; assay type: functional, organism-based; parameters: dose 20 mg/kg
[29] = system: Mus musculus; assay: Retention time in (R)-PIA) induced avoidance test (performed in mice) for antagonistic activity after peroral administration of 20 mg/kg; assay type: functional, organism-based; parameters: dose 20 mg/kg
[30] = system: Mus musculus; assay: Acquisition time in (R)-PIA) induced avoidance test (performed in mice) for antagonistic activity after peroral administration of 0.02 mg/kg; settings: route oral
[31] = system: Rattus norvegicus; assay: Retention time in Scopolamine induced avoidance test (performed in rat) for antagonistic activity after peroral administration of 20 mg/kg (n=9); assay type: functional, organism-based; parameters: dose 20 mg/kg

| Compound | Acquisition time [1] [s] | Acquisition time [2] [s] | Retention time [5] [s] | Acquisition time [6] [s] | Retention time [7] [s] | Acquisition time [9] [s] | Acquisition time [13] [s] | Retention time [14] [s] | Acquisition time [15] [s] | Retention time [18] [s] | Acquisition time [19] [s] | Retention time [21] [s] | Retention time [22] [s] | Retention time [23] [s] | Acquisition time [25] [s] | Acquisition time [27] [s] | Retention time [29] [s] | further results |
| --- | --- | --- | --- | --- | --- | --- | --- | --- | --- | --- | --- | --- | --- | --- | --- | --- | --- | --- |
| Cn1c(=O)c2c(ncn2C)n(C)c1=O [CAFFEINE] | 11.5 | 18.3 | 11.9 | 14.6 | 14.9 | 33.8 | – | – | – | – | – | – | – | – | – | – | – | Locomotor activity [3]: 9693 Counts; Retention time [4]: 12.5 s; Retention time [8]: 7.6 s; Locomotor activity [10]: 6413 Counts; Acquisition time [11]: 29.6 s; Locomotor activity [12]: 9386 Counts |
| CCCn1c(=O)c2nc(C3CCCC3)[nH]c2n(CCc2ccc(NC(C)=O)cc2)c1=O | 15.9 | 15.5 | 170 | 12.6 | 130 | 13.8 | 15.4 | 20 | 18.8 | 47.5 | 27.8 | 38.7 | 175 | 187 | 20.5 | 18.9 | 32.2 | Ki [16]: > 100 µM; inhibition [17]: 66%; Retention time [20]: 137 s; Retention time [24]: 75.4 s; Acquisition time [26]: 23.9 s; Retention time [28]: 116 s; Acquisition time [30]: 12.2 s |
| CCCn1c(=O)c2c(nc(/C=C/c3ccc(OC)c(OC)c3)n2C)n(CCC)c1=O | 24.4 | 11.8 | 20.3 | 10.1 | 12.9 | 22.2 | 14.9 | 65.3 | 25.3 | 37.5 | 19.8 | 42.4 | 31.1 | 4.9 | 31.2 | 22.7 | 92.4 | Retention time [31]: 15.6 s |
